Measurements from patent US20250186470A1, “Compositions and Methods Using Lactulose for Treating Disease” (THE UNIVERSITY OF CHICAGO, priority 2023, published 2025).

Tests used:
bacteremia = test: Bacteremia in liver disease patients paired with fecal samples, logistic regression; type: in vivo, human
Text: FIGS. 13A-13E: Bifidobacteria expansion and associated metabolite production are associated with decreased incidence of bacteremia). (A) Flow diagram depicting number of samples and number of patients that were filtered out at each step of analysis for bacteremia. (B) Taxonomic relative abundance by shotgun metagenomics of stool samples paired to blood cultures is plotted in order of decreasing Bifidobacteria abundance from left to right. Underneath each stool sample is the clinical diagnosis associated with a given blood culture (bacteremia (red) or no bacteremia (green)). (C) Volcano plot of normalized metabolite concentrations. P-values were calculated using a two-tailed Wilcoxon rank sum test and are corrected for multiple comparisons using the Benjamini-Hochberg procedure. Values with log 2 fold-change >1 (corresponding to a 2-fold change with a p-value <0.05) were considered significant. (D and E) Quantitative levels for butyrate, propionate, lithocholic acid, and alloisolithocholic acid were compared from samples associated and not associated with SBP. Units for SCFA are mM, and units for BA derivatives are in μg/mL. Each point represents a single sample. Median and interquartile range are indicated by the horizontal line and box, respectively. […] Statistical comparisons between individual groups were analyzed using a two-tailed Wilcoxon rank sum test. […]

B. longum = test: Ex-germ-free mice colonized with 8-11 strain consortia containing B. longum +/- lactulose; type: in vivo, mouse
Text: (A) Schematic indicating timing of consortia gavage, lactulose administration (20 g/L in drinking water), and stool collection in ex-germ-free mice. […] (B) 16S metagenomics from stool samples without (left facet within each consortia) and with (right facet within each consortia) lactulose exposure is shown as relative abundance. Concentrations of acetate and taurocholic acid are shown in units of mM below each paired sample. (C) Bifidobacteria relative abundance, acetate concentration (mM), and taurocholic acid concentrations (μg/ml) were measured and compared between mice that were and were not exposed to lactulose. […] DNA was extracted using the QIAamp PowerFecal Pro DNA kit (Qiagen). Prior to extraction, samples were subjected to mechanical disruption using a bead beating method. Briefly, samples were suspended in a bead tube (Qiagen) along with lysis buffer and loaded on a bead mill homogenizer (Fisherbrand). Samples were then centrifuged, and supernatant was resuspended in a reagent that effectively removed inhibitors. DNA was then purified routinely using a spin column filter membrane and quantified using Qubit. […] Short chain fatty acids (SCFA, i.e. butyrate, acetate, propionate, and succinate) were derivatized with pentafluorobenzyl bromide (PFBBr) and analyzed via negative ion collision induced-gas chromatography-mass spectrometry ([-]CI-GC-MS, Agilent 8890) 92. Eight bile acids (BA, i.e. primary: cholic acid; conjugated primary: glycocholic acid, taurocholic acid; secondary: deoxycholic acid, lithocholic acid [LCA], isodeoxycholic acid; modified secondary: alloisolithocholic acid [alloisoLCA] and 3-oxolithocholic acid [3-oxoLCA]) were quantified (μg/mL) by negative mode liquid chromatography-electrospray ionization-quadrupole time-of-flight-MS ([-]LC-ESI-QTOF-MS, Agilent 6546). […] For germ-free studies, 6-18 week-old male and female C57BL/6 mice were used. Mice were initially obtained from The Jackson Laboratory and subsequently bred and raised in a germ-free isolator. […]

SMILES: OC[C@H]1O[C@@H](O[C@@H]2[C@@H](CO)OC(O)(CO)[C@H]2O)[C@H](O)[C@@H](O)[C@H]1O (mixture of isomers) [Lactulose, lactulose]
- Samples with lactulose exposure among bacteremia (bacteremia; N = 19): (32%)
- Samples with lactulose exposure among no bacteremia (bacteremia; N = 227): (65%)
- Relative abundance of B. longum (B. longum; all consortia (CON.1-3), 20 g/L lactulose in drinking water): increased
- Fecal taurocholic acid concentrations (B. longum; all three consortia, 20 g/L lactulose): reduced
- Fecal acetate concentrations (B. longum; consortia, 20 g/L lactulose): only modestly increased
